This is an account of results in US4176009A, “Method of measuring collagenase activity” (Ajinomoto Co., Inc., priority 1976, dated 1979).

SMILES strings stand for the structures. Non-standard residues stand in square brackets, D forms with d. Residues, ends and D or L forms follow the SMILES beside them. *: point of attachment. X1 = O=S(=O)(c1ccc(N=Nc2ccc(O)c3ccccc23)cc1)*; Dnp = O=[N+]([O-])c1ccc(*)c([N+](=O)[O-])c1; X2 = O=C(c1ccc(N=Nc2ccccc2)cc1)*

Experiment [1] concerns purified collagenase. Description: Time course of hydrolysis of substrate solutions by purified collagenase (Example 12). It is filed as biochemical, tadpole. As to conditions: for 00365 (absorbance of the organic layer at 365 nm): pH 7.5. The method, then:
(§1) Purified collagenase used in Examples was prepared from cultured media of tadpole skin explants as described in Biochem. Biophs. Acta, 263 564(1972), and non-specific peptidases were prepared by subjecting 5 ml of fresh adult human serum to chromatography on a calibrated Sephadex G-200 superfine gel column equilibrated with 0.05 M Tris-HCl buffer, pH 7.5, containing 0.15 M NaCl and 5 mM CaCl2, and gathering the effluent fractions corresponding to molecular weights of 100,000-180,000.
DNP-Pro-Gln-Gly-Ile-Ala-Gly-Gln-D-Arg-OH.CH3 COOH.H2 O (4.96 mg) was neutralized with 0.1N sodium hydroxide, and dissolved in 0.05M tris-HCl buffer, pH 7.5, containing 0.15 M NaCl and 5 m MCaCl2 to make 10 ml of the substrate solution (a) having a concentration of 5×10^-4 M. The substrate solution (b) was also prepared similarly by using DNP-Gln-Gly-Ile-Ala-Gly-Gln-D-Arg-OH.CH3 COOH.H2 O (4.48 mg).
(§2) 0.9 ml Each of the substrate solutions was diluted with 0.88 ml of 0.05M tris-HCl buffer, pH 7.5, containing 0.15 M NaCl, and 5 m MCaCl2. The resulting solution was mixed with 0.02 ml of purified collagenase, and incubated. 0.2 ml Aliquots of the reaction mixture were taken out at 0, 10, 20, 40, 60 and 120 minutes, and mixed with 0.5 ml of 1M hydrochloric acid for stopping the enzyme reaction.
(§3) The DNP-peptide fragments released were extracted by vigorous shaking with 1 ml of ethyl acetate-n-butanol (1:0.15, V/V) followed by centrifugation at 3,000-5,000 rpm and room temperature for 10 minutes to separate two layers completely. The degree of hydrolysis was determined by measuring the absorbance of the organic layer at 365 nm.

Experiment [2] relates to non-specific peptidases. Description: Time course of hydrolysis of substrate solution(a) by non-specific peptidase (Example 13). Type of experiment: biochemical, human. The method, then:
as §1, §2, §3
1 ml of the substrate solution(a) prepared in Example 12 was mixed with 1.0 ml of non-specific peptidase, and the resulting solution was worked up as in Example 12.

Experiment [3] concerns collagenase in synovial fluids. Description: Hydrolysis of substrate solutions by synovial fluids from patients; collagenase activity (Example 14). It is filed as biochemical, human. As to conditions: for OD365/0.1 ml ohr: 0 hr; for OD365/0.1 ml 2hr: 2 hr at 37° C.; for OD365/0.1 ml increment: 2 hr minus 0 hr. The procedure: as §3
0.2 ml Each of the substrate (solutions(a) and (b) prepared in Example 12 was mixed with 0.1 ml of synovial fluids from patients with osteoarthritis and rheumatoid arthritis, and incubated for 2 hours at 37° C. After stopping the enzyme reaction by adding 0.5 ml of 1 M hydrochloric acid, the DNP-peptide fragments released were extracted by vigorous shaking with 2 ml of ethyl acetate-n-butanol (1:0.15, V/V), and worked up as in Example 12 to obtain the collagenase activities.

Experiment [4] concerns purified collagenase. Description: Rate of hydrolysis of DNP-peptide derivatives by purified collagenase (Example 15). Type of experiment: biochemical, tadpole. As to conditions: 5×10^-4 M peptide, purified collagenase 6.2 U/ml, 37° C., pH 7.5; average of three experiments; extraction with ethyl acetate (* compounds: ethyl acetate-n-butanol 1:0.15). The method, then: as §1
(§4) Various DNP-peptide derivatives were dissolved in 0.05 M Tris-HCl buffer, pH 7.5, containing 0.15 M NaCl, 5 mM CaCl2 and 0.02% bovine serum albumin to make a concentration of 5×10^-4 M. 0.1 ml Each of the peptide derivative solutions was mixed with an equal volume of purified collagenase (6.2 U/ml) or non-specific peptidases and incubated for various periods at 37° C. After stopping the enzyme reaction by adding 0.5 ml of 1 M HCl, the DNP-peptide fragments released were extracted by vigorous shaking with 1 ml of ethylacetate or ethyl acetate-n-butanol (1:0.15, V/V), and worked up as in Example 12.

Experiment [5] concerns non-specific peptidases. Description: Rate of hydrolysis of DNP-peptide derivatives by non-specific peptidases (Example 15). Type of experiment: biochemical, human. As to conditions: 5×10^-4 M peptide, 37° C., pH 7.5; average of three experiments; extraction with ethyl acetate (* compounds: ethyl acetate-n-butanol 1:0.15). The procedure: as §1, §4
In experiment [6] the test system is purified collagenase. Description: Hydrolysis of NABS-peptide by purified collagenase (Example 16). As to conditions: 5×10^-4 M in 20% ethanol-Tris-HCl pH 7.8, collagenase 17.4 U/ml, 60 minutes at 37° C. It is filed as biochemical, tadpole. The method, then:
as §1
NABS-Pro-Gln-Gly-Ile-Ala-Gly-Gln-D-Arg-OH was dissolved in 20% ethanol-0.05 M Tris-HCl buffer, pH 7.8, containing 0.15 M NaCl and 5 mM CaCl2 to make a concentration of 5×10^-4 M. 0.5 ml of the solution was mixed with 0.1 ml of the purified collagenase (17.4 U/ml) and incubated for 60 minutes at 37° C. After stopping the enzyme reaction by adding 0.1 ml of 5 N-hydrochloric acid, the NABS-peptide fragments released were extracted with 1 ml ethyl acetate, followed by centrifugation at 3,000-5,000 rpm and room temperature for 10 minutes. The degree of hydrolysis was determined by measuring the absorbance of the organic layer at 389 nm.

The test system of experiment [7] is purified collagenase. Description: Hydrolysis of PAB-peptide by purified collagenase (Example 17). Type of experiment: biochemical, tadpole. As to conditions: 5×10^-4 M in Tris-HCl pH 7.8, collagenase 17.4 U/ml, 60 minutes at 37° C. The method, then: as §1
PAS-Pro-Gln-Gly-Ile-Ala-Gly-Gln-D-Arg-OH was dissolved in 0.05 M Tris-HCl buffer, pH 7.8, containing 0.15 M NaCl and 5 mM CaCl2 to make a concentration of 5×10^-4 M. 0.1 ml of the solution was mixed with 0.1 ml of the purified collagenase (17.4 U/ml) and incubated for 60 minutes at 37° C. After stopping the enzyme reaction by adding 0.5 ml of 1 N hydrochloric acid, the PAB-peptide fragments released were extracted with 1 ml ethyl acetate after saturated with sodium chloride, and worked up as in Example 16. The degree of hydrolysis was determined by measuring the absorbance of the organic layer at 325 nm.

The mark [8] stands for this setting: synovial fluid of case five, RA.
Setting [9] is: synovial fluid of case four, OA.
[10] abbreviates: synovial fluid of case three, RA.

Regarding `CC[C@H](C)[C@H](NC(=O)CNC(=O)[C@H](CCC(N)=O)NC(=O)[C@@H]1CCCN1c1ccc([N+](=O)[O-])cc1[N+](=O)[O-])C(=O)N[C@@H](C)C(=O)NCC(=O)N[C@@H](CCC(N)=O)C(=O)N[C@H](CCCNC(=N)N)C(=O)O` [Example 1, DNP-Pro-Gln-Gly-Ile-Ala-Gly-Gln-D-Arg-OH] (Dnp-PQGIAGQ[dR]-OH), the “00365 (absorbance of the organic layer at 365 nm)” value with purified collagenase [1] (incubation time 0 min) is reported as 0.033; with purified collagenase [1] (incubation time 10 min), 0.051; in the experiment with purified collagenase [1] (incubation time 20 min) it was 0.071; with purified collagenase [1] (incubation time 40 min), 0.112; in the experiment with purified collagenase [1] (incubation time 60 min), 0.140; in the experiment on purified collagenase [1] (incubation time 120 min), 0.217. The “00365 (absorbance of the organic layer at 365 nm)” value in the experiment on non-specific peptidases [2] (incubation time 0 min) stood at 0.053; in the experiment on non-specific peptidases [2] (incubation time 10 min) it was 0.054; with non-specific peptidases [2] (incubation time 20 min), 0.056; with non-specific peptidases [2] (incubation time 40 min) it was 0.058; in the experiment on non-specific peptidases [2] (incubation time 60 min), 0.060; in the experiment with non-specific peptidases [2] (incubation time 120 min), 0.063. Moreover, the “increment of 00365” value in the experiment on purified collagenase [1] (incubation time 10 min) came to 0.018; in the experiment with purified collagenase [1] (incubation time 20 min), 0.018; in the experiment with purified collagenase [1] (incubation time 40 min), 0.079; in the experiment on purified collagenase [1] (incubation time 60 min) it was 0.107; in the experiment with purified collagenase [1] (incubation time 120 min), 0.184; with non-specific peptidases [2] (incubation time 10 min), 0.001. Moreover, the “increment of 00365” value stood at 0.002 in the experiment on non-specific peptidases [2] (incubation time 20 min), 0.004 in the experiment on non-specific peptidases [2] (incubation time 40 min), 0.007 in the experiment with non-specific peptidases [2] (incubation time 60 min) and 0.010 in the experiment with non-specific peptidases [2] (incubation time 120 min). Further, the OD365/0.1 ml ohr in experiment [3] (setting [8]) is recorded as 0.045 OD365/0.1 ml; in experiment [3] (setting [9]), 0.042 OD365/0.1 ml; in experiment [3] (synovial fluid of case one, RA), 0.041 OD365/0.1 ml; in experiment [3] (synovial fluid of case six, OA), 0.045 OD365/0.1 ml; in experiment [3] (setting [10]), 0.049 OD365/0.1 ml; in experiment [3] (synovial fluid of case two, OA), 0.045 OD365/0.1 ml. The “OD365/0.1 ml 2hr” value in experiment [3] (setting [8]) was 0.591 OD365/0.1 ml; in experiment [3] (setting [9]), 0.045 OD365/0.1 ml; in experiment [3] (synovial fluid of case one, RA), 0.058 OD365/0.1 ml; in experiment [3] (synovial fluid of case six, OA), 0.041 OD365/0.1 ml; in experiment [3] (setting [10]) it was 0.695 OD365/0.1 ml; in experiment [3] (synovial fluid of case two, OA), 0.043 OD365/0.1 ml. Also, the OD365/0.1 ml increment in experiment [3] (setting [8]) was 0.546 OD365/0.1 ml; in experiment [3] (setting [9]) it was 0.003 OD365/0.1 ml; in experiment [3] (synovial fluid of case one, RA), 0.017 OD365/0.1 ml; in experiment [3] (synovial fluid of case six, OA), 0 OD365/0.1 ml; in experiment [3] (setting [10]), 0.646 OD365/0.1 ml. For the same molecule, the “Rate of hydrolysis by Collagenase” value with purified collagenase [4] is reported as 0.093 OD365/hr. Also, in the experiment on non-specific peptidases [5], the “Rate of hydrolysis by non-specific peptidases” value was found to be 0 OD365/hr.
In the case of `CC[C@H](C)[C@H](NC(=O)CNC(=O)[C@H](CCC(N)=O)NC(=O)[C@@H]1CCCN1S(=O)(=O)c1ccc(N=Nc2ccc(O)c3ccccc23)cc1)C(=O)N[C@@H](C)C(=O)NCC(=O)N[C@@H](CCC(N)=O)C(=O)N[C@H](CCCNC(=N)N)C(=O)O` [Example 2, NABS-Pro-Gln-Gly-Ile-Ala-Gly-Gln-D-Arg-OH] (X1-PQGIAGQ[dR]-OH), the “degree of hydrolysis, OD389/hr/ml” value in the experiment with purified collagenase [6] came to 0.100 OD389/hr/ml.
Take `CC[C@H](C)[C@H](NC(=O)CNC(=O)[C@H](CCC(N)=O)NC(=O)[C@@H]1CCCN1C(=O)c1ccc(N=Nc2ccccc2)cc1)C(=O)N[C@@H](C)C(=O)NCC(=O)N[C@@H](CCC(N)=O)C(=O)N[C@H](CCCNC(=N)N)C(=O)O` [Example 3, PAB-Pro-Gln-Gly-Ile-Ala-Gly-Gln-D-Arg-OH] (X2-PQGIAGQ[dR]-OH): the “degree of hydrolysis, OD325/hr/ml” value in the experiment with purified collagenase [7] worked out at 1.117 OD325/hr/ml.
